Measurements reported in patent publication US12275719B2, “Small molecule inhibitors of galectin-3” (BRISTOL-MYERS SQUIBB COMPANY, priority 2019, dated 2025).

Target: His-tagged recombinant human Gal-3 (hGal-3) (Homo sapiens, UniProt P17931)
Test: Gal-3 HTRF assay (hGal-3 / B-ASF binding inhibition)
Description: ASSAY BUFFER Composition: 25 mM HEPES, 100 mM NaCl, 0.005% Tween 20, 0.05% BSA prepared in sterile water (all reagents from Sigma).
Positive Control: 100% DMSO (1 μL)+His-tagged hGal-3 (20 μL)+β-ASF (20 μL)+Anti-His Terbium Antibody (5 μL)+Strep d2 Antibody (5 μL).
Negative Control: 100% DMSO (1 μL)+His-tagged hGal-3 (20 μL)+Anti His Terbium Antibody (5 μL)+Strep d2 Aantibody (5 μL).
PROTOCOL: The Gal-3 assays were performed in 384 white Opti plates in three replicates at room temperature with gentle shaking at 250-300 rpm From the original stocks, […] working stock concentrations of His-tagged recombinant human Gal-3 (hGal-3) and that of B-ASF were prepared. From the working stock, 20 μL of hGal-3 (15 nM) and 20 μL B-ASF (15 nM) were added to the plates. In Negative Control, only hGal-3 was added. A concentration range of 50× working stocks were prepared for the compounds in 100% DMSO. Aliquots of 1 μL of the compounds were added to the wells and pre-incubated with 20 μL hGal-3 per well for 30 minutes Then 20 μL B-ASF were added and incubated for another 1 hour. To detect the signal, 5 μL (final conc. of 1.0 nM) terbium labelled Anti-His antibody was added and incubated for 30 min followed by adding 5 μL (final conc. of 20 nM) Streptavidin d2 and incubation for another 1 hour. The assay signal was detected using HTRF screen protocol (Excitation wavelength=340 nm, emission wavelength=615 nm/665 nm) on Envision 2104 Multilabel Reader. Data analysed using Toolset and Curve Master. Results are reported in the experimental section (IC50 in μM).

His-tagged recombinant human Gal-3 (hGal-3), sequence (P17931 whole entry): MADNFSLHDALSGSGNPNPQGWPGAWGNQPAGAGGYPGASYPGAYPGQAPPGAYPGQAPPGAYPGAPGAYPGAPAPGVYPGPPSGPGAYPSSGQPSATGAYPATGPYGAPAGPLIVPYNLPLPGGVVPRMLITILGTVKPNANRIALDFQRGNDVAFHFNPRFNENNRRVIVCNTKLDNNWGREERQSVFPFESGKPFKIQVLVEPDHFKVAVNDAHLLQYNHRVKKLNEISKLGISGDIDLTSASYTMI

IC50 (table of Examples 5 to 25) [nM]	IC50 (table of Examples 30 to 65) [nM]	SMILES	also measured
	40	OC[C@H]1O[C@@H](c2nncn2-c2cc(Cl)ccc2C(F)(F)F)[C@H](OCC(F)F)[C@@H](n2cc(-c3ccc(Br)c(F)c3)nn2)[C@H]1O [Example 62]	
	57	OC[C@H]1O[C@@H](c2nncn2-c2cc(Cl)ccc2OC(F)(F)F)[C@H](OCC(F)(F)F)[C@@H](n2cc(-c3ccc(Br)c(F)c3F)nn2)[C@H]1O [Example 59]	

The remaining lines, values behind:

SMILES	IC50 (table of Examples 5 to 25) [nM]	IC50 (table of Examples 30 to 65) [nM]	also measured
COc1cc(-c2cn([C@H]3[C@@H](O)[C@@H](CO)O[C@@H](c4nc(C)nn4-c4cc(Cl)ccc4C(F)(F)F)[C@@H]3O)nn2)cc2ccccc12 [Example 18]	1330		
OC[C@H]1O[C@@H](c2n[nH]c(=S)n2-c2cc(Cl)ccc2C(F)(F)F)[C@H](O)[C@@H](n2cc(-c3ccc(Br)c(F)c3F)nn2)[C@H]1O (single isomer, unassigned) [Example 28]			IC50 (Examples 26 to 29 and 66 to 68, HTRF, 15 nM hGal-3, 15 nM B-ASF): 6.9 nM
OC[C@H]1O[C@@H](c2nncn2-c2cc(Cl)ccc2OC(F)(F)F)[C@H](OCC(F)F)[C@@H](n2cc(-c3ccc(Cl)c(F)c3F)nn2)[C@H]1O [Example 53]		19	
CO[C@@H]1[C@@H](n2cc(-c3ccc(Cl)c(F)c3F)nn2)[C@@H](O)[C@@H](CO)O[C@H]1c1nc(C)nn1-c1ccc2ncsc2c1 [Example 21]	10		
CNCCN(C)C(=O)CO[C@@H]1[C@@H](n2cc(-c3cc(F)c(Cl)c(F)c3)nn2)[C@@H](O)[C@@H](CO)O[C@H]1c1nncn1-c1ccc2nc(C)sc2c1 [Example 73]			IC50 (table of Examples 69 to 75): 54 nM
Cc1nc([C@@H]2O[C@H](CO)[C@H](O)[C@H](n3cc(-c4ccc(C#N)c(F)c4F)nn3)[C@H]2O)n(-c2cc(Cl)ccc2C(F)(F)F)n1 [Example 13]	19		
